The values that follow come from patent US8951982B2, “Methods and compositions for the treatment of eye disorders with increased intraocular pressure” (Sylentis S.A.U., priority 2004, dated 2015).

d = 2'-deoxy (DNA)

In the data set the test system is Normotensive New Zealand White rabbits. Kind of data set: In vivo rabbit model of IOP (contact tonometer). The note with it: for decrease of IOP over a saline control: figure legends (FIGS. 5-8), 256 μg dose of siRNA per administration; for IOP Reduction (% of saline control): mean normalized maximum percentage of IOP reduction ± SD, topical to corneal surface, once daily for four consecutive days. The method, then: Normotensive New Zealand White rabbits (males, 2-3 kg) were used in the in vivo assays. The animals were kept in individual cages with free access to food and water. Animals were submitted to artificial 12 hours light/darkness cycles to avoid uncontrolled circadian oscillations of IOP and all experiments were performed at the same time of day to control for any fluctuations in IOP due to circadian oscillations. Animal handling and treatment were carried out in accordance with the European Communities Council Directive (86/609/EEC) and the statement of the Association for Research in Vision and Ophthalmology on the Use of Animals in Ophthalmic and Vision Research. Each animal was used for only one experiment.
IOP measurements were done using a contact tonometer (TonoPen XL, Mentor, Norwell, Mass.) due to past success of measuring intraocular pressures within the range of 3 to 30 mm Hg in rabbits (Abrams et al., 1996, Invest Ophthalmol Vis Sci. 37:940-4). Measurements were performed by delicately applying the tonometer's sensor to the corneal surface of the animal. All measurements fell within the 3 to 30 mm Hg interval with the mean baseline value of intraocular pressure being 17.0±0.39 mm Hg for untreated animals (n=100). In order to avoid distress to the animal, rabbits were topically anesthetized (10 μl of oxibuprocaine/tetracaine, 0.4%/1%, in a saline solution (1/4 v:v)) prior to IOP measurement.
Commercially available drugs were typically administered to the animals by instilling a small volume (typically 40 μl) on the corneal surface. Contralateral eyes were treated with the vehicle alone and were used as controls in each experiment.
siRNA molecules or commercially available drugs were typically administered to the animals as follows. Doses of siRNA in saline solution (0.9% w/v) to a final volume of 40 μl were applied to the corneal surface of one eye each day during four consecutive days. The opposite eye was taken as a control and 40 μl of sterile saline (0.9% w/v) was instilled on it at the same time points. Commercially available drugs were typically administered to the animals by instilling a small volume (typically 40 μl) on the corneal surface. Contralateral eyes were treated with the vehicle alone and were used as controls in each experiment. The IOP was measured before each application and at 2 h, 4 h and 6 h following the instillation for 10 days.
The data are summarized in Table 2 where values represent the mean of the normalized maximum percentage of IOP reduction after siRNA treatment and their standard deviations. The decrease in IOP was statistically significant for all the treated targets.

Consider “SEQ ID NO: 189: siRNA targeting human acetylcholinesterase (ACHE) (CCGUGAGCUGAGCGAGGAC; two-thymidine 3' overhang, other chemistry not given here; listed as Homo sapiens)”, for which the “decrease of IOP over a saline control” value is recorded as 25%.
“SEQ ID NO: 1846: siRNA targeting rabbit acetylcholinesterase; rabbit homolog of SEQ ID NO: 189 (CCGUGAGCUGAGUGAGGAC; two-thymidine 3' overhang, other chemistry not given here; listed as Oryctolagus sp.)”: the “IOP Reduction (% of saline control)” value is given as 25.25 ± 2.70%.
Same read-out and setting: the value for “SEQ ID NO: 1856: siRNA, rabbit homolog of SEQ ID NO: 546; target printed ADRAIA (GACCGACAAAUCCGACUCG; 3' dTdT, sugars by position and backbone not given here; duplex siRNA; listed as Oryctolagus sp.)” was 9.51 ± 1.04%; that for “SEQ ID NO: 1820: siRNA targeting ATP1B2 (ATPase, Na+/K+ transporting, beta 2 polypeptide) (GUUCCACGUGAACUACACA; 3' dTdT, sugars by position and backbone not given here; duplex siRNA; listed as Homo sapiens)” was 16.32 ± 0.91%.
Regarding “SEQ ID NO: 105: siRNA targeting adrenergic, beta-1-, receptor (ADRB1) (CGACCCCAAGUGCUGCGAC; 3' dTdT, sugars by position and backbone not given here; listed as Homo sapiens)”, the “decrease of IOP over a saline control” value came to 25% and the “IOP Reduction (% of saline control)” value is given as 28.04 ± 2.98%.
On to “SEQ ID NO: 1399: siRNA targeting ATP1A1 (ATPase, Na+/K+ transporting, alpha 1 polypeptide) (CUGGAACUCUGACUCAGAA; 3' dTdT, sugars by position and backbone not given here; listed as Homo sapiens)”, for which the “IOP Reduction (% of saline control)” value came to 18.13 ± 1.39%.
Consider “SEQ ID NO: 1850: siRNA targeting PTGS1; rabbit homolog of SEQ ID NO: 322 (CGUGAGCUAUUACACGCGU; 3' dTdT, sugars by position and backbone not given here; duplex siRNA; listed as Oryctolagus sp.)”, for which the “IOP Reduction (% of saline control)” value is recorded as 14.62 ± 1.93%.
Regarding “SEQ ID NO: 1848: siRNA targeting rabbit selectin E (SELE); rabbit homolog of SEQ ID NO: 262 (GCCAACUUGUAAAGCUGUG; 3' dTdT, sugars by position and backbone not given here; duplex siRNA; listed as Oryctolagus sp.)”, the “IOP Reduction (% of saline control)” value is 21.80 ± 1.74%.
“SEQ ID NO: 1859: siRNA targeting AGTR1; rabbit homolog of SEQ ID NO: 705 (ACUCAAGACUGUGGCCAGU; 3' dTdT, sugars by position and backbone not given here; duplex siRNA; listed as Oryctolagus sp.)”: the “IOP Reduction (% of saline control)” value is given as 9.72 ± 1.35%.
For “SEQ ID NO: 1860: siRNA targeting ACE1; rabbit homolog of SEQ ID NO: 866 (CUGGAACUAUAACACCAAC; two-thymidine 3' overhang, other chemistry not given here; listed as Oryctolagus sp.)”, the “IOP Reduction (% of saline control)” value came to 17.51 ± 1.28%.
Turning to “SEQ ID NO: 1841: siRNA targeting rabbit adrenergic, beta-2-, receptor; rabbit homolog of SEQ ID NO: 139 (CAUCGUGCACGUGAUCCAG; 3' dTdT, sugars by position and backbone not given here; duplex siRNA; listed as Oryctolagus sp.)”, the “IOP Reduction (% of saline control)” value is 21.18 ± 1.88%.
